Assay results taken from publication PMC12040169 (PLOS Biology, 2025).

Assay: in vitro
Settings: human, hela cells, % viability

Compared with `CN(C)C(=O)CO[C@@H]1CO[C@H]2[C@@H]1OC[C@@H]2Nc1nccc(-c2cccc(F)c2)n1` [CBK289533], `O=C(c1cccc(F)c1)N1CCN(Cc2ccccn2)CC1` [CBK263023] is higher in viability at 28.5 h, 10 µM: 87.9% for the first, 88.5% for the second.

Compared with `Nc1cc2cccnc2nc1-c1ccc(OC(F)(F)F)cc1` [CBK067616], `Nc1c(-c2cccc(C(F)(F)F)c2)cnc2cccnc12` [CBK081187] is lower in viability at 28.5 h, 10 µM: 93.8% for the first, 88.7% for the second.

Compared with `O=C(Cn1ncc2cccn2c1=O)Nc1cccc(F)c1` [CBK283702], `CC1CCCC(C)N1C(=O)Cn1ncc2cccn2c1=O` (centres unmarked) [CBK283680] is higher in viability at 28.5 h, 10 µM: 89.8% for the first, 101% for the second.

Compared with `CS(=O)(=O)c1ncc(Cl)c(C(=O)N(Cc2ccccc2)c2ccccn2)n1` [CBK269489], `CCN1CCN(C(=O)c2ccccc2N(Cc2ccccc2)S(=O)(=O)c2ccc(C)cc2)CC1` [CBK266827] is lower in viability at 28.5 h, 10 µM: 95% for the first, 91.6% for the second.

First: Cc1nc(C2CCCCN2C(=O)CCc2ccccc2)ncc1C(=O)Nc1ccc(F)cc1 (centres unmarked) [CBK285870]
Second: O=C(NC1CCN(Cc2ccccc2)C1)c1ccc(F)cc1 (centres unmarked) [CBK283044]
The viability at 28.5 h, 10 µM of the first is lower: 95.3% for the first, 97.8% for the second.

Compared with `O=C1N/C(=N/c2cccc(O)c2)S/C1=C1\C(=O)Nc2ccccc21` [CBK265549], `N#Cc1c(N)nc(SCC(=O)c2cc3ccccc3oc2=O)c(C#N)c1-c1ccc(O)cc1` [CBK261269] is higher in viability at 28.5 h, 10 µM: 99.6% for the first, 103% for the second.

First: Cc1cc(Br)c(O)c(C(=O)N(C)CC(=O)Nc2cc(C)on2)c1 [CBK306002]
Second: COc1ccc(C)cc1S(=O)(=O)N(C)CC(=O)Nc1cccc(Cl)c1 [CBK269493]
The viability at 28.5 h, 10 µM of the first is higher: 94.8% for the first, 88.5% for the second.

Compared with `CCc1noc(C)c1C(=O)NCCN1CC(C)CC(C)C1` (centres unmarked) [CBK282081], `CN1CCC(CNC(=O)C2(c3ccccc3F)CC2)(N(C)C)CC1` [CBK282604] is lower in viability at 28.5 h, 10 µM: 113% for the first, 91.6% for the second.

First: COc1cc(F)ccc1-c1cnc(N)c2ncccc12 [CBK067585]
Second: OCCn1c(COc2cccc3cccnc23)nc2ccccc21 [CBK269942]
The viability at 28.5 h, 10 µM of the first is higher: 81.4% for the first, 79.5% for the second.

Compared with `COc1ccc(C(=O)C2=C(O)C(=O)N(CCN3CCNCC3)C2c2ccc(Cl)c(Cl)c2)cc1` (centres unmarked) [CBK264616], `CCCC1CCN(c2ncnc(Oc3ccc(C(=O)c4ccc(F)cc4)cc3)c2[N+](=O)[O-])CC1` [CBK116495] is lower in viability at 28.5 h, 10 µM: 95.1% for the first, 85% for the second.

Going from `O=[N+]([O-])c1ccc(N(CCO)CCO)c2nonc12` [CBK261447] to `CCOC(=O)C1CCCN(C(=O)CCn2c(=O)oc3cc(Cl)ccc32)C1` (centres unmarked) [CBK304516], the viability at 28.5 h, 10 µM falls from 98.7% to 93.8%.

Compared with `O=C(c1ccc(F)cc1F)N1CCC(O)(c2ccccn2)CC1` [CBK283671], `OC(CN1CCC(O)(c2ccc(F)cc2)CC1)c1ccc(-c2ccccc2)cc1` (centres unmarked) [CBK286328] is lower in viability at 28.5 h, 10 µM: 107% for the first, 90% for the second.

Compared with `CC(Cn1cnc2ccccc21)C(=O)N1CCCCC1CN(C)C` (centres unmarked) [CBK282191], `CC(CN(C)C(=O)CC1CCN(C(=O)CC2CCCCC2)CC1)c1ccccc1` (centres unmarked) [CBK286268] is lower in viability at 28.5 h, 10 µM: 106% for the first, 97.9% for the second.

First: CS(=O)(=O)c1ccc(CN2CC[C@H](c3nc4ncccc4[nH]3)C2)cc1 [CBK289385]
Second: Cc1ccc(CNC(=O)Cn2nnc(-c3ccc(CN4CCC(S(C)(=O)=O)C4)cc3)n2)cc1 (centres unmarked) [CBK155407T]
The viability at 28.5 h, 10 µM of the first is higher: 101% for the first, 91.7% for the second.

Going from `O=S(=O)(c1ccc(F)cc1)c1nc(-c2cccs2)oc1N1CCN(Cc2ccccc2)CC1` [CBK267672] to `Cn1c(-c2ccc(CN3CCCC3)cc2)nc2onc(-c3ccccc3)c2c1=O` [CBK039188C], the viability at 28.5 h, 10 µM rises from 89.7% to 95.2%.

Going from `CN1C(=O)COc2ccccc2CCCC[C@@H]2[C@H]1CCCN2C(=O)CNS(C)(=O)=O` [CBK292118] to `CC1Cc2cc(C(=O)N3CCCCC3CCN3CCCC3)ccc2O1` (centres unmarked) [CBK282094], the viability at 28.5 h, 10 µM falls from 113% to 100%.

First: Cc1cc(Sc2nc[nH]n2)c2c(Cl)ccc(Cl)c2n1 [CBK025959]
Second: Cc1noc(C)c1NC(=O)c1cc2ccccc2[nH]1 [CBK200303]
The viability at 28.5 h, 10 µM of the first is higher: 109% for the first, 95.6% for the second.

Going from `COc1ccc(C2NC(C(=O)O)CS2)c(OC)c1` (centres unmarked) [CBK260908] to `COc1ccc(C(=S)NCCCCCC(=O)O)cc1` [CBK288523], the viability at 28.5 h, 10 µM falls from 99.2% to 87.1%.

First: Cc1cc(Cl)ccc1NC(=O)COC(=O)c1ccccc1I [CBK265638]
Second: O=C(CCSc1ccccc1)Nc1ccccc1C(=O)O [CBK264119]
The viability at 28.5 h, 10 µM of the first is lower: 89.6% for the first, 92.1% for the second.

First: CCn1c(=O)n(CC(=O)N2CCCCCC2)c2cccnc21 [CBK283942]
Second: O=c1[nH]nc2ccc(S(=O)(=O)N3CCCCC3)cn12 [CBK288459]
The viability at 28.5 h, 10 µM of the first is higher: 97.1% for the first, 89.5% for the second.

Compared with `COC(=O)c1c(NC(=O)CC2NCCNC2=O)sc(C)c1C` (centres unmarked) [CBK269447], `CCOC(=O)c1sc(NC(=O)CCNC(=O)c2ccccc2C(=O)O)c(C#N)c1C` [CBK295152] is higher in viability at 28.5 h, 10 µM: 92.1% for the first, 96.1% for the second.

Compared with `CSCC(=O)N1C[C@@H]2C[C@H](C1)c1c(-c3ccc(NC(C)=O)cc3)ccc(=O)n1C2` [CBK289200], `Cc1ccc(-c2csc3c(=O)[nH]c(N4CCCC(C(=O)NCC(N)=O)C4)nc23)cc1` (centres unmarked) [CBK215542] is higher in viability at 28.5 h, 10 µM: 89.7% for the first, 98.3% for the second.

Compared with `CN(C)CCCOc1nccnc1N1CCCC1` [CBK113427], `Oc1cc(C(F)(F)F)nc(N2CCCC2)n1` [CBK002389] is higher in viability at 28.5 h, 10 µM: 89.6% for the first, 105% for the second.

Compared with `CCN(Cc1ccccc1)Cc1ccco1` [CBK261884], `CCN(Cc1ccncc1)C(=O)NCc1c(Cl)cccc1Cl` [CBK155144] is lower in viability at 28.5 h, 10 µM: 111% for the first, 107% for the second.

First: Cc1cnc(NC(=O)N2CCOC(c3ccc(F)cc3F)C2)s1 (centres unmarked) [CBK304126]
Second: O=C(O)C1CCCN(C(=O)NCc2cccc(C(F)(F)F)c2)C1 (centres unmarked) [CBK161345]
The viability at 28.5 h, 10 µM of the first is lower: 88.5% for the first, 94.5% for the second.

Compared with `CN(C)C(=O)CN1C(=O)N2CCCN=C2c2ccc(Cl)cc21` [CBK284392], `O=C(O)C1CC=CCC1C(=O)NCc1ccc(N2CCCC2=O)cc1` (centres unmarked) [CBK270081] is lower in viability at 28.5 h, 10 µM: 98.2% for the first, 79.7% for the second.

Going from `Cc1cccc(-n2cnc3cc(C(=O)NCc4cccnc4)ccc32)c1` [CBK294455] to `COc1ccc(CC(=O)N2CCCC(c3cccc(Cc4cccc(C)c4)n3)C2)cc1` (centres unmarked) [CBK286498], the viability at 28.5 h, 10 µM rises from 77.5% to 99.8%.

Compared with `Oc1ccc(-n2ncc(-c3ccc(F)cc3)n2)cc1` [CBK112904], `CN1CCN(c2cc(-c3ccncc3)nc3ccccc23)CC1` [CBK050976B] is higher in viability at 28.5 h, 10 µM: 79.7% for the first, 89.1% for the second.

First: CC(C)NC(=O)N1CCCC2(C1)NCCc1c2[nH]c2ccccc12 (centres unmarked) [CBK046952]
Second: Cn1cc(C(CC(=O)O)C(=O)O)c2ccccc21 (centres unmarked) [CBK266231]
The viability at 28.5 h, 10 µM of the first is lower: 86.7% for the first, 98.9% for the second.

Compared with `CCCC(=O)NC(NC(=S)Nc1ccccc1Cl)C(Cl)(Cl)Cl` (centres unmarked) [CBK261026], `CCCC(=O)Nc1ccc(OCc2cnccn2)c(C(C)=O)c1` [CBK304766] is lower in viability at 28.5 h, 10 µM: 106% for the first, 102% for the second.

First: CCn1c(C(C)Oc2ccc(Cl)cc2)n[nH]c1=S (centres unmarked) [CBK015099]
Second: C=CCn1c(Cc2csc(NC(=O)c3cc(S(=O)(=O)NC)ccc3C)n2)n[nH]c1=S [CBK297903]
The viability at 28.5 h, 10 µM of the first is higher: 108% for the first, 105% for the second.

Compared with `COC(=O)CCC(=O)Nc1ccc(S(N)(=O)=O)cc1` [CBK261351], `CC1CCN(S(=O)(=O)c2ccc(C(=O)NC(C(=O)O)C(C)O)cc2)CC1` (centres unmarked) [CBK297151] is higher in viability at 28.5 h, 10 µM: 88.1% for the first, 99.1% for the second.

Compared with `O=C(Oc1ccc(N(C(=O)c2ccncc2)S(=O)(=O)c2cccs2)cc1)c1ccncc1` [CBK265619], `O=C(Cc1ccccc1)Nc1ccc(Oc2ccc(C(=O)O)c(C(=O)O)c2)cc1` [CBK263611] is lower in viability at 28.5 h, 10 µM: 98.7% for the first, 90.3% for the second.

First: COC(=O)[C@H]1CN(C(=O)c2cccs2)C[C@@H]1c1ccc(F)cc1 [CBK283732]
Second: CCN(Cc1ccncc1)C(=O)Nc1ccc2[nH]ccc2c1 [CBK155136]
The viability at 28.5 h, 10 µM of the first is lower: 92% for the first, 99.5% for the second.

Going from `Cc1ccc(-c2nc3ccccc3s2)cc1NC(=O)c1sc2ccccc2c1Cl` [CBK263865] to `CC(C)C(=O)Nc1cc2cccnc2nc1-c1ccc2c(c1)OCCCO2` [CBK073658], the viability at 28.5 h, 10 µM rises from 93.9% to 96.3%.

Going from `COc1ccc(C(C)C)cc1S(=O)(=O)NCCc1c(C)[nH]c2c(Cl)cccc12` [CBK266983] to `CCn1c(C)cc2cc(NS(=O)(=O)c3cn(C)nc3C)ccc21` [CBK282789], the viability at 28.5 h, 10 µM falls from 94.5% to 93.5%.

Going from `CCCCc1ccc(NC(=S)NN2CCN(C)CC2)cc1` [CBK265741] to `COCC1CCCN(Cc2ccc(Br)cc2)C1` (centres unmarked) [CBK304624], the viability at 28.5 h, 10 µM rises from 97.1% to 108%.

Going from `CC1(C)CC(=O)C2=C(C1)Nc1[nH][nH]c(=O)c1C2c1ccccn1` (centres unmarked) [CBK288463] to `Cc1c(C(=O)NC2CCN(c3ncccc3C#N)CC2)ccn1C` [CBK307681], the viability at 28.5 h, 10 µM rises from 92% to 103%.

Going from `COc1cc(-c2nccnc2NCc2ccco2)cc(OC)c1OC` [CBK037072] to `c1ccc2c(-c3cn4ccnc4c(N4CCOCC4)n3)cccc2c1` [CBK037387], the viability at 28.5 h, 10 µM falls from 111% to 91.6%.

First: N#Cc1c(NC(=O)CSc2nnc(N)s2)sc2c1CCCC2 [CBK266649]
Second: O=[N+]([O-])c1ccc(Sc2nnc(-c3cccs3)n2CC2CCCO2)cn1 (centres unmarked) [CBK297483]
The viability at 28.5 h, 10 µM of the first is higher: 99.8% for the first, 94.6% for the second.

Compared with `CC1CCc2c(C(=O)N3CCC4(CC3)NC(=O)NC4=O)csc2C1` (centres unmarked) [CBK305741], `CC(=O)NCC(=O)N1CC[C@@H]2NC(=O)CNC(=O)C3(CCCC[C@H]2C1)CCN(C(C)=O)CC3` [CBK292014] is lower in viability at 28.5 h, 10 µM: 101% for the first, 91.8% for the second.

First: O=S(=O)(Nc1nnn[nH]1)c1ccc(N2CCOCC2)nc1 [CBK062385]
Second: O=S(=O)(CCc1ccccc1)N1CCCn2nc(-c3ccncc3)cc2C1 [CBK288608]
The viability at 28.5 h, 10 µM of the first is higher: 99% for the first, 87.3% for the second.

Going from `CCC(=O)N1CCC(c2cc(C(F)(F)F)n3nc(C)cc3n2)CC1` [CBK284367] to `CC(C)(C)OC(=O)N1CCC(C2OCc3cc(C(=O)N4CCNC(=O)C4)ccc3O2)CC1` (centres unmarked) [CBK173277], the viability at 28.5 h, 10 µM rises from 96.9% to 105%.

Going from `CNS(=O)(=O)c1c(C)nn(-c2ccccc2)c1C` [CBK086715] to `CN1CCC(=NNC(=O)CN(c2cccc([N+](=O)[O-])c2)S(=O)(=O)c2ccccc2)CC1` [CBK262727], the viability at 28.5 h, 10 µM falls from 102% to 90.3%.

For `Cc1ccc(SCCN2CCNCC2)cc1` [CBK266045G], the viability at 28.5 h, 10 µM was 99.6%.
